Tested on: subjects with major depressive disorder (MDD) who were inadequate responders to citalopram
Assay: Individual HAMD-17 factor (subscale) scores, exploratory analysis
Format: in vivo, human
Protocol: In more detail, a multi-center double-blind, randomized, placebo-controlled, parallel group, flexible dose titration study of TC-5214 as adjunctive therapy in subjects with major depressive disorder (MDD) who were inadequate responders to citalopram was conducted in centers in the US and India. The study consisted of a screening period, baseline/washout period, open-label phase, double-blind phase, and a follow-up visit. Subject participation in the study could continue for up to 16 weeks of treatment. Following a washout period of up to 28 days for other antidepressants, subjects with MDD and a MADRS total score >/=28 and a Clinical Global Impression-Severity (CGI-S) score >/=4 were enrolled on Day 1 into an open-label citalopram-only phase of the study. This phase lasted 8 weeks, with citalopram (CIT) dose increased from a once-daily dose of 20 mg (Day 1 through Week 4) to 40 mg (Week 4 through Week 8). A total of 579 subjects entered the open-label citalopram phase. At Week 8, subjects who tolerated 40 mg CIT, but whose MADRS score was reduced <50% from baseline and no lower than 17, and CGI-S≧4, were considered inadequate responders. These subjects (n=270) were randomized in a double-blind fashion to receive either placebo or TC-5214-23 as add-on therapy to continued CIT. The double-blind phase of the study also lasted 8 weeks (Week 8 to Week 16). Study drug, TC-5214-23 or placebo, was started at 2 mg daily (1 mg twice per day [BID] dosing), added on to continuing CIT (40 mg PO qd). After 2 weeks of treatment, the dose of TC-5214 could be increased to 4 mg (2 mg BID) or continued unchanged, with up-titration based upon good tolerability and inadequate therapeutic response. After a further 2 weeks, the dose of TC-5214 could be increased again to 8 mg (4 mg BID) if judged appropriate by the investigator, based upon good tolerability and inadequate therapeutic response. At any time during the double-blind phase of the study, placebo or TC-5214-23 could be reduced to the previous dose level following the emergence of unacceptable adverse events (AEs). […] At this follow-up, any signs or symptoms of relapse were evaluated. If a subject was prematurely discontinued from the study between Week 8 and Week 16 for any reason, the investigator was to make every effort to perform all evaluations as per protocol, assuming the subject had reached the end of the double-blind add-on treatment phase. These evaluations were to be made as soon as possible and within 2 weeks of discontinuation. […] There was no meaningful difference in results as a function of age, gender, site, or smoking status. An exploratory analysis assessed the differences in the treatment groups from Week 8 (double-blind baseline) to Week 16 for each individual HAMD-17 factor score.

[1] = ITT population, Week 8 (double-blind baseline) to Week 16

## CNC1(C)C2CCC(C2)C1(C)C (stereo in doubt) [TC-5214, (S)—N,2,3,3-tetramethylnorbornan-2-amine]
[1]
  HAMD-17 item 1 Depression-Mood: Adjusted Mean Change TC-5214—Placebo (SD): −0.69 (0.86)
  HAMD-17 item 1 Depression-Mood: Effect Size: 0.80
  HAMD-17 item 2 Feelings of Guilt: Adjusted Mean Change TC-5214—Placebo (SD): −0.43 (0.72)
  HAMD-17 item 2 Feelings of Guilt: Effect Size: 0.60
  HAMD-17 item 3 Suicide: Adjusted Mean Change TC-5214—Placebo (SD): −0.07 (0.40)
  HAMD-17 item 3 Suicide: Effect Size: 0.18
  HAMD-17 item 4 Early Insomnia: Adjusted Mean Change TC-5214—Placebo (SD): −0.41 (0.64)
  HAMD-17 item 4 Early Insomnia: Effect Size: 0.64
  HAMD-17 item 5 Middle Insomnia: Adjusted Mean Change TC-5214—Placebo (SD): −0.42 (0.64)
  HAMD-17 item 5 Middle Insomnia: Effect Size: 0.66
  HAMD-17 item 6 Late Insomnia: Adjusted Mean Change TC-5214—Placebo (SD): −0.35 (0.63)
  HAMD-17 item 6 Late Insomnia: Effect Size: 0.56
  HAMD-17 item 7 Work and Activities: Adjusted Mean Change TC-5214—Placebo (SD): −0.49 (0.86)
  HAMD-17 item 7 Work and Activities: Effect Size: 0.57
  HAMD-17 item 8 Retardation: Adjusted Mean Change TC-5214—Placebo (SD): −0.31 (0.59)
  HAMD-17 item 8 Retardation: Effect Size: 0.53
  HAMD-17 item 9 Agitation: Adjusted Mean Change TC-5214—Placebo (SD): −0.40 (0.68)
  HAMD-17 item 9 Agitation: Effect Size: 0.59
  HAMD-17 item 10 Psychic Anxiety: Adjusted Mean Change TC-5214—Placebo (SD): −0.59 (0.77)
  HAMD-17 item 10 Psychic Anxiety: Effect Size: 0.77
  HAMD-17 item 11 Somatic Symptoms: Anxiety: Adjusted Mean Change TC-5214—Placebo (SD): −0.41 (0.70)
  HAMD-17 item 11 Somatic Symptoms: Anxiety: Effect Size: 0.59
  HAMD-17 item 12 Somatic Symptoms: GI: Adjusted Mean Change TC-5214—Placebo (SD): −0.23 (0.52)
  HAMD-17 item 12 Somatic Symptoms: GI: Effect Size: 0.44
  HAMD-17 item 13 Somatic Symptoms: General: Adjusted Mean Change TC-5214—Placebo (SD): −0.24 (0.66)
  HAMD-17 item 13 Somatic Symptoms: General: Effect Size: 0.36
  HAMD-17 item 14 Somatic Symptoms: Genital: Adjusted Mean Change TC-5214—Placebo (SD): −0.34 (0.62)
  HAMD-17 item 14 Somatic Symptoms: Genital: Effect Size: 0.55
  HAMD-17 item 15 Hypochondriasis: Adjusted Mean Change TC-5214—Placebo (SD): −0.48 (0.74)
  HAMD-17 item 15 Hypochondriasis: Effect Size: 0.65
  HAMD-17 item 16 Weight Loss: Adjusted Mean Change TC-5214—Placebo (SD): −0.20 (0.53)
  HAMD-17 item 16 Weight Loss: Effect Size: 0.38
  HAMD-17 item 17 Insight: Adjusted Mean Change TC-5214—Placebo (SD): 0.03 (0.31)
  HAMD-17 item 17 Insight: Effect Size: 0.10
ITT, with the exception of the Suicide and Insight subscales, result in words
  each HAMD-17 subscale score change from baseline compared with placebo: statistically significant decreases (improvements)
